# Where two headings read alike, the source gives them in different places.
# How the values were obtained:
# [1] = Solubility of linker-payloads (LC-MS standard curve, saturated solution); format: physicochemical; details: water, thermodynamic from solid
# Protocol: The following test assays the solubility of the linker-payloads with a cyclodextrin moiety and the linker-payloads without a cyclodextrin moiety.
# The test compounds were dissolved in DMSO to build a standard curve using LC-MS method A or B. The test sample was dissolved in water and sonicated for 10 minutes, and then centrifuged. The upper clear solution was analyzed using the same method A or B and the solubility was calculated based on its peak area.
# Detailed test procedures were as follows: • 1. […] 0.05 mg of compound was suspended in water (1 mL) and sonicated for 10 minutes. After centrifugation, the clear solution above was collected to provide the saturated sample solution. • 3. All the standard solutions A, B, C, D, E and sample solution were analyzed by LCMS (using the same method and same injection volume) to obtain the peak areas. • 4. Calculate the standard curve according to the data of A-D (X=concentration, Y=peak areas). • 5. Calculate to obtain the concentration of saturated sample solution according to the functions obtained above.
# Cathepsin B = Cathepsin B (Homo sapiens, UniProt P07858); assay: Cathepsin B cleavage rate of linker-payloads (Example 66); format: biochemical; details: Cathepsin B cleavage rate; for CapB (%): pH 5.0, 37° C.; for capB: Table 8A
# Protocol: Step 1: Preparation of Cathepsin B buffer: 0.1 M NaOAc/0.01M DTT (pH5.0) Dissolve 8.3 g/L NaOAc, 1.54 g/L DTT in deionized water. Adjust pH to 5.0 with HCl/sodium hydroxide.
# Step 2: Test Cleavage Rate
# • 1. Prepare 25 μM of testing sample: To a 2-mL-tube was added 0.5 mg of testing sample, followed by the addition of 0.2 mL of DMSO. The solution was added dropwise into 0.8 mL of 0.1 M NaOAc/0.01 M DTT buffer. The obtained mixtures were sonicated for 5 minutes to obtain clear and colorless solutions. The pH value of the solution was around 5 according to pH test strip. • 2. Preheat assay buffer: 0.1 M NaOAc/0.01 M DTT (pH 5.0) • 3. Spiking solutions for test compounds: 25 μM Spiking solutions for test compounds: Add 2 μL of 5 mM stock solution into 398 μL of 0.1 M NaOAc/0.01 M DTT buffer (pH 5.0). • 4. Prepare 0.47 μg/μL Cathepsin B in 50 mM NaOAc/1 mM EDTA (pH 5.0). Put on ice. • 5. Without CA074 samples: Add 4 μL of 0.47 μg/μL Cathepsin B into 196 μL of 25 μM Spiking solutions (from step 2), incubate the tubes at 37° C. • 6. With CA074 samples: Add 4 μL of 0.47 μg/μL Cathepsin B with 4 μL of 10 mM Inhibitor (CA074) into 196 μL of 25 μM Spiking solutions (from step 2), incubate the tubes. • 7. After quenching, shake the plate and centrifuge them at 14000 rpm. • 8. Transfer 50 μL of the supernatant from each well into a 96-well sample plate containing 50 μL of ultra pure water (Millipore, ZMQS50F01) for LC/MS analysis. Step 3: Test reference compounds: • 9. Preheat assay buffer: 100 mM Na/K phosphate, pH 6.0, with 1.33 mM EDTA and 2 mM DTT. • 10. Prepare 0.024 μg/μL Cathepsin B: Add 1 μL of 0.47 μg/μL Cathepsin B stock into 19 μL of assay buffer (from step 11). • 11. Add 2 μL of 0.024 μg/μL Cathepsin B (from step 12) to a opaque 96-well plate. • 12. Add 96 μL of assay buffer to each sample. • 13. Add 2 μL of the 10 mM substrate Z-RR-MNA (200 μM final concentration). • 14. For negative control (With inhibitor), add 2 μL of 10 mM Inhibitor (CA074): Immediately read the samples in a kinetic mode at excitation of 340 nm/emission of 425 nm (Read the plate every 30 Second for 3 min). Step 4: Stability of Cathepsin B in incubation samples: • 15. Take 5 μL of incubation samples into 93 μL of assay buffer (from step 11), and then add 2 μL of 10 mM substrate (Z-RR-MNA). • 16. Incubate the samples at 37° C. for 2 min. • 17. Read the samples at excitation of 340 nm/emission of 425 nm.
solubility at 10 min ([1]; Aq. Solubility (mg/mL)),solubility at 10 min ([1]; Solubility),Structure (SMILES),CapB (%) (Cathepsin B),other results
,,CC[C@H](C)[C@@H]([C@@H](CC(=O)N1CCC[C@H]1[C@H](OC)[C@@H](C)C(=O)N[C@H](C)[C@@H](O)c1ccccc1)OC)N(C)C(=O)[C@@H](NC(=O)[C@H](C(C)C)N(C)C(=O)OCc1ccc(NC(=O)[C@H](CCCNC(N)=O)NC(=O)[C@@H](NC(=O)[C@@H](CCCCNC(=O)CCC(=O)N2Cc3ccccc3C#Cc3ccccc32)NC(=O)CCCCCN2C(=O)CC(N3CCN(CC4OC5OC6C(CO)OC(OC7C(CO)OC(OC8C(CO)OC(OC9C(CO)OC(OC%10C(CO)OC(OC4C(O)C5O)C(O)C%10O)C(O)C9O)C(O)C8O)C(O)C7O)C(O)C6O)CC3)C2=O)C(C)C)cc1)C(C)C (stereo partly drawn) [Ex38],,"solubility at 10 min ([1]; aqueous, read-out: Aq. Solubility): 500 µg/mL; solubility at 10 min ([1]; read-out: Solubility): 250 µg/mL"
,,CC[C@H](C)[C@@H]([C@@H](CC(=O)N1CCC[C@H]1[C@H](OC)[C@@H](C)C(=O)N[C@H](C)[C@@H](O)c1ccccc1)OC)N(C)C(=O)[C@@H](NC(=O)[C@H](C(C)C)N(C)C(=O)OCc1ccc(NC(=O)[C@H](CCCNC(N)=O)NC(=O)[C@@H](NC(=O)[C@@H](CCCCNC(=O)CCOCCOCCOCCOCCNC(=O)COC2CCCCCc3c2nnn3CC2OC3OC4C(CO)OC(OC5C(CO)OC(OC6C(CO)OC(OC7C(CO)OC(OC8C(CO)OC(OC2C(O)C3O)C(O)C8O)C(O)C7O)C(O)C6O)C(O)C5O)C(O)C4O)NC(=O)CCOCCOCCOCCOCCNC(=O)CCC(=O)N2Cc3ccccc3C#Cc3ccccc32)C(C)C)cc1)C(C)C (stereo partly drawn) [Ex43],% (50< % ≤60 CapB (%)),
,,CC[C@H](C)[C@@H]([C@@H](CC(=O)N1CCC[C@H]1[C@H](OC)[C@@H](C)C(=O)N[C@H](C)[C@@H](O)c1ccccc1)OC)N(C)C(=O)[C@@H](NC(=O)[C@H](C(C)C)N(C)C(=O)OCc1ccc(NC(=O)[C@H](CCCNC(N)=O)NC(=O)[C@@H](NC(=O)[C@@H](CCCCNC(=O)CCOCCOCCOCCOCCNC(=O)COC2CCCCCc3c2nnn3CC2OC3OC4C(CO)OC(OC5C(CO)OC(OC6C(CO)OC(OC7C(CO)OC(OC8C(CO)OC(OC2C(O)C3O)C(O)C8O)C(O)C7O)C(O)C6O)C(O)C5O)C(O)C4O)NC(=O)CCOCCOCCOCCOCCNC(=O)OC[C@@H]2[C@@H]3CCC#CCC[C@@H]32)C(C)C)cc1)C(C)C (stereo partly drawn) [Ex44],% (50< % ≤60 CapB (%)),
180 µg/mL,330 µg/mL,"CC(C)[C@H](NC(=O)[C@@H](CCCCNC(=O)CCOCCOCCOCCOCCNC(=O)COC1CCCCCc2nnn(CC3OC4OC5C(CO)OC(OC6C(CO)OC(OC7C(CO)OC(OC8C(CO)OC(OC9C(CO)OC(OC3C(O)C4O)C(O)C9O)C(O)C8O)C(O)C7O)C(O)C6O)C(O)C5O)c21)NC(=O)CCOCCOCCOCCOCCNC(=O)OCC1C2CCC#CCCC21)C(=O)N[C@@H](C)C(=O)Nc1ccc2c(c1)[C@@]1(C)CCC[C@](C)(C(=O)NC(=O)[C@@]3(C)CCC[C@]4(C)c5cc(O)ccc5CC[C@@H]34)[C@@H]1CC2 (stereo partly drawn) [Ex51, BCN-PEG4-D-Lys(PEG4-COT-CD)-Val-Ala-1d]",,
300 µg/mL,290 µg/mL,"CC(C)[C@H](NC(=O)[C@@H](CCCCNC(=O)CCOCCOCCOCCOCCNC(=O)COC1CCCCCc2nnn(CC3OC4OC5C(CO)OC(OC6C(CO)OC(OC7C(CO)OC(OC8C(CO)OC(OC9C(CO)OC(OC3C(O)C4O)C(O)C9O)C(O)C8O)C(O)C7O)C(O)C6O)C(O)C5O)c21)NC(=O)CCOCCOCCOCCOCCNC(=O)OCC1C2CCC#CCCC21)C(=O)N[C@@H](CCCNC(N)=O)C(=O)Nc1ccc(COC(=O)NCCOc2ccc3c(c2)[C@@]2(C)CCC[C@](C)(C(=O)NC(=O)[C@@]4(C)CCC[C@]5(C)c6cc(O)ccc6CC[C@@H]45)[C@@H]2CC3)cc1 (stereo partly drawn) [Ex52, BCN-PEG4-D-Lys(PEG4-COT-CD)-vcPAB-1e]",,
300 µg/mL,,"CC(C)[C@H](NC(=O)[C@@H](CCCCNC(=O)COC1CCCCCc2c1nnn2CC1OC2OC3C(CO)OC(OC4C(CO)OC(OC5C(CO)OC(OC6C(CO)OC(OC7C(CO)OC(OC1C(O)C2O)C(O)C7O)C(O)C6O)C(O)C5O)C(O)C4O)C(O)C3O)NC(=O)CCOCCOCCOCCOCCNC(=O)OCC1C2CCC#CCCC21)C(=O)N[C@@H](C)C(=O)Nc1ccc2c(c1)[C@@]1(C)CCC[C@](C)(C(=O)NC(=O)[C@@]3(C)CCC[C@]4(C)c5cc(O)ccc5CC[C@@H]34)[C@@H]1CC2 (stereo partly drawn) [Ex54, BCN-PEG4-D-Lys(COT-CD)-Val-Ala-1d]",,
< 100 µg/mL,< 100 µg/mL,"CC(C)[C@H](NC(=O)[C@@H](CCCCNC(=O)COC1CCCCCc2c1nnn2CC1OC2OC3C(CO)OC(OC4C(CO)OC(OC5C(CO)OC(OC6C(CO)OC(OC7C(CO)OC(OC1C(O)C2O)C(O)C7O)C(O)C6O)C(O)C5O)C(O)C4O)C(O)C3O)NC(=O)CCOCCOCCOCCOCCNC(=O)CCC(=O)N1Cc2ccccc2C#Cc2ccccc21)C(=O)N[C@@H](CCCNC(N)=O)C(=O)Nc1ccc(COC(=O)N[C@@H](CO)C(=O)Nc2ccc3c(c2)[C@@]2(C)CCC[C@](C)(C(=O)NC(=O)[C@@]4(C)CCC[C@]5(C)c6cc(O)ccc6CC[C@@H]45)[C@@H]2CC3)cc1 (stereo partly drawn) [Ex56, DIBAC-suc-PEG4-D-Lys(COT-CD)-vcPAB-1g]",,
,,"CC(C)[C@H](NC(=O)[C@@H](CCCCNC(=O)COC1CCCCCc2c1nnn2CC1OC2OC3C(CO)OC(OC4C(CO)OC(OC5C(CO)OC(OC6C(CO)OC(OC7C(CO)OC(OC8C(CO)OC(OC9C(CO)OC(OC1C(O)C2O)C(O)C9O)C(O)C8O)C(O)C7O)C(O)C6O)C(O)C5O)C(O)C4O)C(O)C3O)NC(=O)CCOCCOCCOCCOCCNC(=O)CCC(=O)N1Cc2ccccc2C#Cc2ccccc21)C(=O)N[C@@H](C)C(=O)Nc1ccc2c(c1)[C@@]1(C)CCC[C@](C)(C(=O)NC(=O)[C@@]3(C)CCC[C@]4(C)c5cc(O)ccc5CC[C@@H]34)[C@@H]1CC2 (stereo partly drawn) [Ex57, DIBAC-suc-PEG4-D-Lys(COT-CD)-vcPAB-1d]",,capB (Cathepsin B): 8.3%
,,"CCCC1O[C@@H]2C[C@H]3[C@@H]4C[C@H](F)C5=CC(=O)C=C[C@]5(C)[C@@]4(F)[C@@H](O)C[C@]3(C)[C@]2(C(=O)CNC(=O)OCc2ccc(NC(=O)[C@H](CCCNC(N)=O)NC(=O)[C@@H](NC(=O)[C@@H](CCCCNC(=O)COC3CCCCCc4c3nnn4CC3OC4OC5C(CO)OC(OC6C(CO)OC(OC7C(CO)OC(OC8C(CO)OC(OC9C(CO)OC(OC3C(O)C4O)C(O)C9O)C(O)C8O)C(O)C7O)C(O)C6O)C(O)C5O)NC(=O)CCOCCOCCOCCOCCNC(=O)OC[C@@H]3[C@@H]4CCC#CCC[C@@H]43)C(C)C)cc2)O1 (stereo partly drawn) [Ex60, BCN-PEG4-dLys(COT-CD)-vcPAB-1h]",% (% ≤50 CapB (%)),
,,"CCCC1O[C@@H]2C[C@H]3[C@@H]4C[C@H](F)C5=CC(=O)C=C[C@]5(C)[C@@]4(F)[C@@H](O)C[C@]3(C)[C@]2(C(=O)COc2ccc(NC(=O)OCc3ccc(NC(=O)[C@H](CCCNC(N)=O)NC(=O)[C@@H](NC(=O)[C@@H](CCCCNC(=O)COC4CCCCCc5c4nnn5CC4OC5OC6C(CO)OC(OC7C(CO)OC(OC8C(CO)OC(OC9C(CO)OC(OC%10C(CO)OC(OC4C(O)C5O)C(O)C%10O)C(O)C9O)C(O)C8O)C(O)C7O)C(O)C6O)NC(=O)CCOCCOCCOCCOCCNC(=O)CCC(=O)N4Cc5ccccc5C#Cc5ccccc54)C(C)C)cc3)cc2)O1 (stereo partly drawn) [Ex62, DIBAC-suc-PEG4-dLys(COT-CD)-vcPAB-1i]",% (% ≤50 CapB (%)),capB (Cathepsin B): 12.8%
